Structures can show the parent of a compound that is named as a salt. Where two headings read alike, the source gives them in different places.
Tests used:
BuChE = target: T1, BuChE (UniProt P81908); format: biochemical, human or equine serum
T1 construct: 120 min incubation; BuChE IC50
Procedure: B. Measurement of Acetylcholinesterase (AChE) and Butylcholinesterase (BuChE) Inhibition In Vitro
The enzyme was incubated at 37° C. with 6-10 concentrations of the compounds tested and samples were collected at 15, 30, 60 and 120 min Aliquots were transferred to an Elisa multiscan microplate reader (Labsystems) at 15-60 sec time intervals for the determination of residual AChE activity, with Ascent PC software. […] The % inhibition of AChE by each concentration was calculated by comparison with the activity of the enzyme in the absence of drug. […] BuChE-inhibitory activity was determined as described above using BuChE (Sigma Israel) with butylthiocholine iodide (BuTh) 0.075M as a substrate.

[1] = Radical scavenging, glucose oxidase/luminol luminescence; format: biochemical; conditions: concentration reducing luminescence/radical by 50%; mean ± SD, three independent experiments
Procedure: A. Measurement of Radical Scavenging
A mixture comprising glucose oxidase (GO), luminol, sodium selenite [IV] ([…]) and cobalt [II] (Co^+2) all in Hank's Balance Salt Solution (HBSS) was used (Ginsburg et al, 2004). The production of H2O2 produces a burst of luminescence within 30-60 sec, which lasts for 7-10 min. The luminescence involves oxidation of SEL+5 to it SEL+6 and also the generation of oxidants, which are catalyzed by Co^+2. This method mimics infection and inflammation conditions in which there is an accumulation of several oxidant species. This method provides a source of several radicals. Reduction in luminescence by the compounds is due to their ability to sequester radicals and was measured after addition of several concentrations of each compound. The concentration of each compound that reduced the luminescence by 50% was calculated.

[2] = test system: TNF-α, BV2 mouse microglial cells; test: TNF-α reduction in LPS-stimulated BV2 microglia; format: cell-based
Procedure: The BV2 mouse microglial cells were created by infecting primary mouse microglia with v-raf/v-myc oncogen-carrying retrovirus and donated by Dr. Sigal Fleisher—Berkovich (Ben-Gurion University of the Negev). The cells were cultured in RPMI 1640 containing 0.4 mM L-Glutamine, 10% FCS, 100 units/ml penicillin, 100 μg/ml streptomycin and maintained in a humidified incubator at 37° C. with 5% CO2. For measurement of the effect of compounds on the release of NO the cells were seeded in a density of 80,000 cells/ml and confluence of about 60%, and incubated with test compounds (in the absence of FCS) for […] All the medium was removed and fresh medium containing FCS and LPS (10 μg/ml) added and the cells maintained at 37° C. for 24 h. The release of NO into the medium was determined by measurement of nitrite levels using Griess reagent reaction. For measurement of protein levels of cytokines cells were seeded in a density of 80,000 and incubated with test compounds (in the absence of FCS) and then with LPS as described above. The medium was centrifuged and supernatants collected after 6 h for TNF-α (Biolegend) and after 20 h for IL-6 (Biolegend).

[3] = read-out: IC50 BuChE 120 min, Table 3, 120 min incubation

Row | Structure (SMILES) | melting point [°C] | also measured
1 | CCCCN(C)C(=O)Oc1ccc2cc[nH]c2c1 | 84 to 87 | –
2 | COC(=O)/C=C/c1c[nH]c2cc(OCc3ccccc3)ccc12 | 174 to 178 | –
3 | CCN(C)C(=O)Oc1ccc2cc[nH]c2c1 | 105 to 108 | –
4 | CCN(C)C(=O)Oc1ccc2c(C=O)c[nH]c2c1 | 170 to 175 | –
5 | COC(=O)/C=C/c1c[nH]c2cc(O)ccc12 | 195 to 200 | –
6 | COc1ccc(N(C)C(=O)Oc2ccc3cc[nH]c3c2)cc1 | 168 to 173 | –
7 | COc1ccc(N(C)C(=O)Oc2ccc3c(C=O)c[nH]c3c2)cc1 | 218 to 220 | –
8 | COc1ccc(N(C)C(=O)Oc2ccc3c(C=O)cn(C)c3c2)cc1 | 110 to 115 | –
9 | COC(=O)/C=C/c1cn(C)c2cc(OC(=O)N(C)c3ccc(OC)cc3)ccc12 | 120 to 125 | –
10 | CCN(C)C(=O)Oc1ccc2c(C=O)cn(C)c2c1 | 124 to 128 | –
11 | CCN(C)C(=O)Oc1ccc2c(/C=C/C(=O)OC)cn(C)c2c1 | 105 to 110 | –
12 | CCCCN(C)C(=O)Oc1ccc2c(C=O)cn(C)c2c1 | 90 to 95 | –
13 | CCCCN(C)C(=O)Oc1ccc2c(/C=C/C(=O)OC)cn(C)c2c1 | 65 to 70 | –
14 | COC(=O)/C=C/c1cn(C)c2cc(OCc3ccccc3)ccc12 | 150 to 155 | –
15 | CCN(C)C(=O)Oc1ccc2c(CCC(=O)O)c[nH]c2c1 | 132 to 136 | –
16 | O=C(O)CCc1c[nH]c2cc(O)ccc12 | 197 to 200 | –
17 | Cn1cc(CCC(=O)O)c2ccc(O)cc21 | 157 to 161 | –
18 | CCN(C)C(=O)Oc1cccc2[nH]cc(CCC(N)=O)c12 | 64 to 66 | –
19 | COC(=O)/C=C/c1c[nH]c2c(OCc3ccccc3)cccc12 | 134 to 137 | –
20 | COC(=O)CCc1c[nH]c2c(O)cccc12 | 89 to 94 | –

Row | Structure (SMILES) | melting point [°C] | also measured
21 | CCN(C)C(=O)Oc1cccc2c(CCC(=O)O)c[nH]c12 | 98 to 101 | –
22 | CCOC(=O)CCc1c[nH]c2cccc(OC(=O)N(C)CC)c12 | 85 to 87 | –
23 | CCN(C)C(=O)Oc1cccc2[nH]cc(/C=C/[N+](=O)[O-])c12 | 171 to 174 | –
24 | O=C(O)CCc1c[nH]c2cccc(O)c12 | 118 to 120 | –
25 | O=C(O)/C=C/c1c[nH]c2cccc(OCc3ccccc3)c12 | 163 to 164 | –
26 | CCN(C)C(=O)Oc1ccc2ccn(CCC(=O)OC)c2c1 | 94 to 96 | –
27 | CCN(C)C(=O)Oc1cccc2[nH]ccc12 | 113 to 115 | –
28 | CCN(C)C(=O)Oc1cccc2c1ccn2C | 42 to 45 | –
29 | CCN(C)C(=O)Oc1cccc2c1c(C=O)cn2C | 85 to 88 | –
30 | CCCCN(C)C(=O)Oc1cccc2[nH]ccc12 | 86 to 89 | –
31 | COC(=O)CCc1c[nH]c2cc(O)ccc12 | 93 to 96 | –
32 | CCN(C)C(=O)Oc1ccc2c(CCC(=O)OC)cn(C)c2c1 | 49 to 52 | –
33 | COC(=O)CCc1cn(C)c2cc(O)ccc12 | 35 to 40 | –
34 | CCN(C)C(=O)Oc1cccc2[nH]cc(/C=C/C(=O)OC)c12 | 128 to 131 | –
35 | CCN(C)C(=O)Oc1cccc2c1c(/C=C/C(=O)OC)cn2C | 97 to 100 | –
36 | COc1ccc(N(C)C(=O)Oc2cccc3[nH]ccc23)cc1 | 113 to 115 | –
37 | COc1ccc(N(C)C(=O)Oc2cccc3[nH]cc(C=O)c23)cc1 | 173 to 175 | –
38 | COC(=O)/C=C/c1c[nH]c2cccc(OC(=O)N(C)c3ccc(OC)cc3)c12 | 155 to 157 | –
39 | COC(=O)CCc1cn(C)c2cccc(OC(=O)N(C)c3ccc(OC)cc3)c12 | 110 to 112 | –
40 | COc1ccc(N(C)C(=O)Oc2cccc3[nH]cc(CCC(=O)O)c23)cc1 | 194 to 196 | –

Row | Structure (SMILES) | melting point [°C] | also measured
41 | COc1ccc(N(C)C(=O)Oc2cccc3c2c(CCC(=O)O)cn3C)cc1 | 161 to 163 | –
42 | COC(=O)/C=C/c1c[nH]c2cccc(OCc3ccccc3)c12 | 153 to 156 | –
43 | COC(=O)/C=C/c1cn(C)c2cccc(OCc3ccccc3)c12 | 122 to 125 | –
44 | COC(=O)CCc1c[nH]c2cccc(O)c12 | 93 to 95 | –
45 | COC(=O)CCc1cn(C)c2cccc(O)c12 | 123 to 124 | –
46 | CCN(C)C(=O)Oc1ccc2c(/C=C/C(=O)OC)c[nH]c2c1 | 142 to 145 | –
47 | CCN(C)C(=O)Oc1cccc2[nH]cc(/C=C/C(=O)O)c12 | 164 to 166 | –
48 | COC(=O)CCC1CN(C)c2cc(O)ccc21 (stereo not drawn) (as salt: hydrochloride) | 104 to 108 | –
49 | CCCCN(C)C(=O)Oc1cccc2c1C(CCC(=O)OC)CN2C (stereo not drawn) [AN-667, 3-(2-(Methoxycarbonyl)ethyl)-1-methylindolin-4-yl butylmethylcarbamate hydrochloride] | – | IC50 (BuChE; [3]): 197 µM; IC50 [1]: 6.84 ± 0.05 µM
50 | CCN(C)C(=O)Oc1cccc2c1C(CCC(=O)OC)CN2C (stereo not drawn) [AN-698, 3-(2-(Methoxycarbonyl)ethyl)-1-methylindolin-4-yl ethylmethylcarbamate hydrochloride] | – | IC50 (BuChE; [3]): 6.8 µM; IC50 [1]: 3.13 ± 0.36 µM
51 | CCN(C)C(=O)Oc1cccc2c1C(CCC(=O)O)CN2C (stereo not drawn) [AN-699, 3-(4-((Ethyl(methyl)carbamoyl)oxy)-1-methylindolin-3-yl)propanoic acid hydrochloride] | – | IC50 (BuChE; [3]): 9.7 µM; IC50 [1]: 1.64 ± 0.06 µM
52 | COc1ccc(N(C)C(=O)Oc2cccc3c2C(CCC(=O)O)CN3)cc1 (stereo not drawn) [AN-821, hydrochloride] | – | IC50 (BuChE; [3]): 417 µM; IC50 [1]: 4.33 ± 0.06 µM
53 | COc1ccc(N(C)C(=O)Oc2cccc3c2C(CCC(=O)O)CN3C)cc1 (stereo not drawn) [AN-822, hydrochloride] | – | IC50 (BuChE; [3]): > 600 µM; IC50 [1]: 10.2 ± 4.1 µM
54 | [2H]c1cc2c(cc1O)N(C)CC2CCC(=O)O (stereo not drawn) [AN-849, Methyl 3-(5-deuteriu-6-hydroxy-1-methylindolin-3-yl) propanoic acid hydrochloride] | – | IC50 [1]: 0.84 ± 0.05 µM
55 | CCN(C)C(=O)Oc1cccc2c1C(CCC(N)=O)CN2 (stereo not drawn) [AN-851, 3-(3-Amino-3-oxopropyl)indolin-4-yl ethyl(methyl)carbamate hydrochloride] | – | IC50 (BuChE; [3]): 8.5 µM; IC50 [1]: 2.39 ± 0.4 µM
56 | CCN(C)C(=O)Oc1cccc2c1NCC2CCC(=O)OC (stereo not drawn) [AN-852, Methyl 3-(7-(ethyl(methyl)carbamoyloxy)indolin-3-yl)propanoate hydrochloride] | – | IC50 (BuChE; read-out: BuChE IC50, most potent BuChE inhibitors): 0.08 µM
57 | Oc1cccc2c1CCN2 [AN-855, Indolin-4-ol hydrochloride] | – | Reduction in TNF-α levels, BV2 Microglia % peak reduction [2]: 38.2 ± 3.2%; Reduction in TNF-α levels, BV2 Microglia range ([2]; concentration range, None = no reduction up till 100 nM): 10^−1-100 nM
58 | CN(C)C(=O)Oc1cccc2c1CCN2 [AN-856, Indolin-4-yl dimethylcarbamate hydrochloride] | – | IC50 (BuChE; [3]): 1.3 µM; IC50 [1]: 0.77 ± 0.03 µM
59 | COc1ccc(N(C)C(=O)Oc2cccc3c2CCN3)cc1 [AN-857, Indolin-4-yl 4-methoxyphenyl(methyl)carbamate hydrochloride] | – | IC50 (BuChE; [3]): 3.6 µM
60 | CCN(C)C(=O)Oc1ccc2c(c1)NCC2 [AN-885, Indolin-6-yl ethyl(methyl)carbamate hydrochloride] | – | IC50 (BuChE; [3]): 58.7 µM; IC50 [1]: 1.15 ± 0.01 µM

Source: US9499484B2, “Indole, indoline derivatives, compositions comprising them and uses thereof” (priority 2012, dated 2016)
